Experimental data published in patent US20250171437A1 (Agios Pharmaceuticals,Inc., priority 2022, published 2025).

Target: T1, human PAH with the R408W mutation (A375 R408W cells) (Homo sapiens, UniProt P00439, R408W)
T1 construct: expressed in transfected cells
T1 sequence (P00439 1-452 R408W): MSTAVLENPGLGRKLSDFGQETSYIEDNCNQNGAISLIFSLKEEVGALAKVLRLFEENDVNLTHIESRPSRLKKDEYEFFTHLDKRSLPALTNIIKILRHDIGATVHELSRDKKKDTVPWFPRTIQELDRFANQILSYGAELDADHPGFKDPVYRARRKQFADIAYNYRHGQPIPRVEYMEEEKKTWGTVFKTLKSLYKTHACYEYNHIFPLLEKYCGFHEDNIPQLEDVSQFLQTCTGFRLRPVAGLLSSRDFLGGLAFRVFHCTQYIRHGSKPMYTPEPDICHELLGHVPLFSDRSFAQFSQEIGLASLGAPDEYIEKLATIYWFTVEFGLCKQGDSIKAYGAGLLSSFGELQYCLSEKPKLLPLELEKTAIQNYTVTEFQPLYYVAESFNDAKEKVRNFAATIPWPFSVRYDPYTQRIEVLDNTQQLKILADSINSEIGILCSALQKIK
Assay: Cell Based Phenylalanine Flux Assay
Details: A375 R408W cells; 24 hrs with compound, then 20 μM sepiapterin and 800 μM 13C9,15N-Phenylalanine for 4 hours; 13C-Tyrosine by LC-MS; average where tested multiple times
Summary of the method: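 AC50 is derived from LC-MS of 13C-tyrosine in the media after a 4 h pulse of 800 μM 13C9,15N-phenylalanine plus 20 μM sepiapterin. The A375 R408W PAH cells had received duplicate 10-point, 2-fold compound dilutions (0.5% DMSO) for 24 h beforehand.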

AC50 | SMILES
≤ 500 nM | O=C(c1nnc(-c2ccccn2)o1)N1CCc2[nH]cnc2[C@H]1c1nc2ccccc2o1 [Example 583, (S)-(4-(benzo[d]oxazol-2-yl)-6,7-dihydro-1H-imidazo[4,5-c]pyridin-5(4H)-yl)(5-(pyridin-2-yl)-1,3,4-oxadiazol-2-yl)methanone]
1000 to 5000 nM | O=C(c1nnc(-c2ccccn2)o1)N1CCc2[nH]cnc2[C@@H]1c1nc2ccccc2o1 [Example 584, (R)-(4-(benzo[d]oxazol-2-yl)-6,7-dihydro-1H-imidazo[4,5-c]pyridin-5(4H)-yl)(5-(pyridin-2-yl)-1,3,4-oxadiazol-2-yl)methanone]
≤ 500 nM | O=C(c1oc(C2(O)CCC2)nc1C(F)(F)F)N1CCc2[nH]cnc2[C@H]1c1nc2cc(F)ccc2o1 [Example 585, (S)-(4-(5-fluorobenzo[d]oxazol-2-yl)-6,7-dihydro-1H-imidazo[4,5-c]pyridin-5(4H)-yl)(2-(1-hydroxycyclobutyl)-4-(trifluoromethyl)oxazol-5-yl)methanone]
1000 to 5000 nM | O=C(c1oc(C2(O)CCC2)nc1C(F)(F)F)N1CCc2[nH]cnc2[C@@H]1c1nc2cc(F)ccc2o1 [Example 586, (R)-(4-(5-fluorobenzo[d]oxazol-2-yl)-6,7-dihydro-1H-imidazo[4,5-c]pyridin-5(4H)-yl)(2-(1-hydroxycyclobutyl)-4-(trifluoromethyl)oxazol-5-yl)methanone]
≤ 500 nM | O=C(c1oc(-c2ccccn2)nc1C(F)F)N1CCc2[nH]cnc2[C@H]1c1nc2cccc(F)c2o1 [Example 587, (S)-(4-(difluoromethyl)-2-(pyridin-2-yl)oxazol-5-yl)(4-(7-fluorobenzo[d]oxazol-2-yl)-6,7-dihydro-1H-imidazo[4,5-c]pyridin-5(4H)-yl)methanone]
≤ 500 nM | O=C(c1oc(-c2ccccn2)nc1C(F)F)N1CCc2[nH]cnc2[C@@H]1c1nc2cccc(F)c2o1 [Example 588, (R)-(4-(difluoromethyl)-2-(pyridin-2-yl)oxazol-5-yl)(4-(7-fluorobenzo[d]oxazol-2-yl)-6,7-dihydro-1H-imidazo[4,5-c]pyridin-5(4H)-yl)methanone]
≤ 500 nM | O=C(c1oc(-c2cccnc2)nc1C(F)F)N1CCc2[nH]cnc2[C@@H]1c1nc2cccc(F)c2o1 [Example 589, (R)-(4-(difluoromethyl)-2-(pyridin-3-yl)oxazol-5-yl)(4-(7-fluorobenzo[d]oxazol-2-yl)-6,7-dihydro-1H-imidazo[4,5-c]pyridin-5(4H)-yl)methanone]
≤ 500 nM | O=C(c1oc(-c2cccnc2)nc1C(F)F)N1CCc2[nH]cnc2[C@H]1c1nc2cccc(F)c2o1 [Example 590, (S)-(4-(difluoromethyl)-2-(pyridin-3-yl)oxazol-5-yl)(4-(7-fluorobenzo[d]oxazol-2-yl)-6,7-dihydro-1H-imidazo[4,5-c]pyridin-5(4H)-yl)methanone]
≤ 500 nM | Cn1ccc(-c2nc(C(F)F)c(C(=O)N3CCc4[nH]cnc4[C@H]3c3nc4cccc(F)c4o3)o2)n1 [Example 591, (S)-(4-(difluoromethyl)-2-(1-methyl-1H-pyrazol-3-yl)oxazol-5-yl)(4-(7-fluorobenzo[d]oxazol-2-yl)-6,7-dihydro-1H-imidazo[4,5-c]pyridin-5(4H)-yl)methanone]
500 to 1000 nM | Cn1ccc(-c2nc(C(F)F)c(C(=O)N3CCc4[nH]cnc4[C@@H]3c3nc4cccc(F)c4o3)o2)n1 [Example 592, (R)-(4-(difluoromethyl)-2-(1-methyl-1H-pyrazol-3-yl)oxazol-5-yl)(4-(7-fluorobenzo[d]oxazol-2-yl)-6,7-dihydro-1H-imidazo[4,5-c]pyridin-5(4H)-yl)methanone]
1000 to 5000 nM | Cc1nc(-c2ccccn2)oc1C(=O)N1CCc2[nH]cnc2[C@@H]1c1nc2cccc(F)c2o1 [Example 593, (R)-(4-(7-fluorobenzo[d]oxazol-2-yl)-6,7-dihydro-1H-imidazo[4,5-c]pyridin-5(4H)-yl)(4-methyl-2-(pyridin-2-yl)oxazol-5-yl)methanone]
≤ 500 nM | Cc1nc(-c2ccccn2)oc1C(=O)N1CCc2[nH]cnc2[C@H]1c1nc2cccc(F)c2o1 [Example 594, (S)-(4-(7-fluorobenzo[d]oxazol-2-yl)-6,7-dihydro-1H-imidazo[4,5-c]pyridin-5(4H)-yl)(4-methyl-2-(pyridin-2-yl)oxazol-5-yl)methanone]
1000 to 5000 nM | Cc1nc(-c2cnn(C)c2)oc1C(=O)N1CCc2[nH]cnc2[C@@H]1c1nc2cccc(F)c2o1 [Example 595, (R)-(4-(7-fluorobenzo[d]oxazol-2-yl)-6,7-dihydro-1H-imidazo[4,5-c]pyridin-5(4H)-yl)(4-methyl-2-(1-methyl-1H-pyrazol-4-yl)oxazol-5-yl)methanone]
≤ 500 nM | Cc1nc(-c2cnn(C)c2)oc1C(=O)N1CCc2[nH]cnc2[C@H]1c1nc2cccc(F)c2o1 [Example 596, (S)-(4-(7-fluorobenzo[d]oxazol-2-yl)-6,7-dihydro-1H-imidazo[4,5-c]pyridin-5(4H)-yl)(4-methyl-2-(1-methyl-1H-pyrazol-4-yl)oxazol-5-yl)methanone]
≤ 500 nM | Cc1ncoc1C(=O)N1CCc2[nH]cnc2[C@H]1c1nc2ccc(F)cc2o1 [Example 597, (S)-(4-(6-fluorobenzo[d]oxazol-2-yl)-6,7-dihydro-1H-imidazo[4,5-c]pyridin-5(4H)-yl)(4-methyloxazol-5-yl)methanone]
1000 to 5000 nM | Cc1ncoc1C(=O)N1CCc2[nH]cnc2[C@@H]1c1nc2ccc(F)cc2o1 [Example 598, (R)-(4-(6-fluorobenzo[d]oxazol-2-yl)-6,7-dihydro-1H-imidazo[4,5-c]pyridin-5(4H)-yl)(4-methyloxazol-5-yl)methanone]
≤ 500 nM | Cc1ncoc1C(=O)N1CCc2[nH]cnc2[C@H]1c1nc2c(F)cccc2o1 [Example 599, (S)-(4-(4-fluorobenzo[d]oxazol-2-yl)-6,7-dihydro-1H-imidazo[4,5-c]pyridin-5(4H)-yl)(4-methyloxazol-5-yl)methanone]
1000 to 5000 nM | Cc1ncoc1C(=O)N1CCc2[nH]cnc2[C@@H]1c1nc2c(F)cccc2o1 [Example 600, (R)-(4-(4-fluorobenzo[d]oxazol-2-yl)-6,7-dihydro-1H-imidazo[4,5-c]pyridin-5(4H)-yl)(4-methyloxazol-5-yl)methanone]
500 to 1000 nM | COc1cccc2oc([C@@H]3c4nc[nH]c4CCN3C(=O)c3nc(C(F)F)nn3C)nc12 [Example 601, (S)-(3-(difluoromethyl)-1-methyl-1H-1,2,4-triazol-5-yl)(4-(4-methoxybenzo[d]oxazol-2-yl)-6,7-dihydro-1H-imidazo[4,5-c]pyridin-5(4H)-yl)methanone]
500 to 1000 nM | COc1cccc2oc([C@H]3c4nc[nH]c4CCN3C(=O)c3nc(C(F)F)nn3C)nc12 [Example 602, (R)-(3-(difluoromethyl)-1-methyl-1H-1,2,4-triazol-5-yl)(4-(4-methoxybenzo[d]oxazol-2-yl)-6,7-dihydro-1H-imidazo[4,5-c]pyridin-5(4H)-yl)methanone]
≤ 500 nM | COc1cccc2oc([C@@H]3c4nc[nH]c4CCN3C(=O)c3ccnn3C(F)F)nc12 [Example 603, (S)-(1-(difluoromethyl)-1H-pyrazol-5-yl)(4-(4-methoxybenzo[d]oxazol-2-yl)-6,7-dihydro-1H-imidazo[4,5-c]pyridin-5(4H)-yl)methanone]
1000 to 5000 nM | COc1cccc2oc([C@H]3c4nc[nH]c4CCN3C(=O)c3ccnn3C(F)F)nc12 [Example 604, (R)-(1-(difluoromethyl)-1H-pyrazol-5-yl)(4-(4-methoxybenzo[d]oxazol-2-yl)-6,7-dihydro-1H-imidazo[4,5-c]pyridin-5(4H)-yl)methanone]
≤ 500 nM | CC(C)(O)c1nc(C(F)F)c(C(=O)N2CCc3[nH]cnc3[C@H]2c2nc3cc(Cl)cc(F)c3o2)o1 [Example 605, (S)-(4-(5-chloro-7-fluorobenzo[d]oxazol-2-yl)-6,7-dihydro-1H-imidazo[4,5-c]pyridin-5(4H)-yl)(4-(difluoromethyl)-2-(2-hydroxypropan-2-yl)oxazol-5-yl)methanone]
≤ 500 nM | CC(C)(O)c1nc(C(F)F)c(C(=O)N2CCc3[nH]cnc3[C@@H]2c2nc3cc(Cl)cc(F)c3o2)o1 [Example 606, (R)-(4-(5-chloro-7-fluorobenzo[d]oxazol-2-yl)-6,7-dihydro-1H-imidazo[4,5-c]pyridin-5(4H)-yl)(4-(difluoromethyl)-2-(2-hydroxypropan-2-yl)oxazol-5-yl)methanone]
≤ 500 nM | O=C(c1ocnc1C(F)F)N1CCc2[nH]cnc2[C@@H]1c1nc2cc(Cl)cc(F)c2o1 [Example 607, (R)-(4-(5-chloro-7-fluorobenzo[d]oxazol-2-yl)-6,7-dihydro-1H-imidazo[4,5-c]pyridin-5(4H)-yl)(4-(difluoromethyl)oxazol-5-yl)methanone]
≤ 500 nM | O=C(c1ocnc1C(F)F)N1CCc2[nH]cnc2[C@H]1c1nc2cc(Cl)cc(F)c2o1 [Example 608, (S)-(4-(5-chloro-7-fluorobenzo[d]oxazol-2-yl)-6,7-dihydro-1H-imidazo[4,5-c]pyridin-5(4H)-yl)(4-(difluoromethyl)oxazol-5-yl)methanone]
500 to 1000 nM | O=C(c1ccnn1C(F)F)N1CCc2[nH]cnc2[C@H]1c1nc2cc(F)cc(F)c2o1 [Example 609]
